Reference: PubChem BioAssay (NCI)
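Five concentrations, 48 hours, 96-well plates. GI50 = concentration required for 50% inhibition of growth. Definition used: TGI = concentration required for complete inhibition of growth.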

Key:
Assay in all cases: NCI tumour cell line growth inhibition, 48 h
SN12C renal = test system: SN12C renal
HOP-62 NSCLC = test system: HOP-62 NSCLC
TK-10 renal = test system: TK-10 renal
HCT-116 colon = test system: HCT-116 colon
SNB-75 CNS = test system: SNB-75 CNS
RPMI-8226 leukemia = test system: RPMI-8226 leukemia
OVCAR-8 ovarian = test system: OVCAR-8 ovarian
NCI-H23 lung = test system: NCI-H23 lung
SW-620 colon = test system: SW-620 colon
SF-268 CNS = test system: SF-268 CNS

| SMILES | TGI (SN12C renal) | TGI (HOP-62 NSCLC) | TGI (TK-10 renal) | TGI (HCT-116 colon) | TGI (SNB-75 CNS) | TGI (RPMI-8226 leukemia) | TGI (OVCAR-8 ovarian) | TGI (NCI-H23 lung) | TGI (SW-620 colon) | TGI (SF-268 CNS) | GI50 (SN12C renal) | GI50 (HOP-62 NSCLC) | GI50 (TK-10 renal) | GI50 (HCT-116 colon) | GI50 (SNB-75 CNS) | GI50 (RPMI-8226 leukemia) | GI50 (OVCAR-8 ovarian) | GI50 (NCI-H23 lung) | GI50 (SW-620 colon) | GI50 (SF-268 CNS) |
| --- | --- | --- | --- | --- | --- | --- | --- | --- | --- | --- | --- | --- | --- | --- | --- | --- | --- | --- | --- | --- |
| FC(F)(F)c1nc(-c2ccccc2)oc1Sc1oc(-c2ccccc2)nc1C(F)(F)F | > 100 µM | > 100 µM | > 100 µM | > 100 µM | > 100 µM | > 100 µM | > 100 µM | > 100 µM | > 100 µM | > 100 µM | – | – | – | – | – | – | – | – | – | – |
| O=C(O)CCSC(=S)Nc1ccc([N+](=O)[O-])cc1 | > 100 µM | > 100 µM | > 100 µM | > 100 µM | > 100 µM | > 77.2 µM | > 100 µM | > 100 µM | > 100 µM | > 100 µM | – | – | – | – | – | – | – | – | – | – |
| Cc1ccccc1NC(=O)c1ccc([N+](=O)[O-])cc1 | > 100 µM | > 100 µM | > 100 µM | > 100 µM | > 100 µM | > 100 µM | > 100 µM | > 100 µM | > 100 µM | > 100 µM | – | – | – | – | – | – | – | – | – | – |
| O=S(=O)(CCCCl)SCCCCl | 64.1 µM | > 100 µM | > 100 µM | 51.1 µM | > 94 µM | 64.1 µM | 18 µM | > 100 µM | 42.3 µM | 65 µM | – | – | – | – | – | – | – | – | – | – |
| Cn1sc2ccccc2c1=S | 18.2 µM | 24.5 µM | 44.8 µM | 13.3 µM | 17.4 µM | 18.7 µM | 22.3 µM | 34.7 µM | 5.2 µM | 9.79 µM | – | – | – | – | – | – | – | – | – | – |
| C=C(CN(C)C)C(=O)c1ccc(Oc2ccccc2)cc1 | 16.4 µM | 43.7 µM | 14.5 µM | 5.32 µM | 35.5 µM | > 21.8 µM | 25.3 µM | 24.9 µM | 9.27 µM | 32.5 µM | – | – | – | – | – | – | – | – | – | – |
| C=C[C@H]1C=Cc2c(OC)cccc2[C@@H]1COP1(=S)NC(C)C(c2ccccc2)O1 (stereo not given in full) | > 100 µM | > 100 µM | > 100 µM | > 100 µM | > 100 µM | > 100 µM | > 100 µM | > 100 µM | > 100 µM | > 100 µM | – | – | – | – | – | – | – | – | – | – |
| Cc1nn(C)c2cc(N(C)c3ccnc(Nc4cccc(S(N)(=O)=O)c4)n3)ccc12 | > 25 µM | > 25 µM | 24.4 µM | > 25 µM | > 23.7 µM | > 25 µM | > 25 µM | > 25 µM | > 25 µM | > 25 µM | 6.59 µM | > 15 µM | 5.93 µM | 7.43 µM | 5.89 µM | 6.82 µM | 7.15 µM | 6.6 µM | 11.3 µM | 6.39 µM |
| COc1cc(N2CCC(N3CCN(C)CC3)CC2)ccc1Nc1ncc(Cl)c(Nc2ccccc2S(=O)(=O)C(C)C)n1 | 14.2 µM | 7.98 µM | 2.43 µM | 1.64 µM | 2.17 µM | 6.46 µM | 7.76 µM | 8.1 µM | 2.52 µM | 2.44 µM | 0.613 µM | 0.414 µM | 0.79 µM | 0.358 µM | 0.919 µM | 0.924 µM | 2.1 µM | 1.05 µM | 0.337 µM | 0.813 µM |
| CC#CC(=O)N1CC[C@@H](n2c(=O)n(-c3ccc(Oc4ccccc4)cc3)c3c(N)ncnc32)C1 | > 100 µM | > 100 µM | > 100 µM | 98.4 µM | > 100 µM | 66.3 µM | > 100 µM | > 100 µM | > 100 µM | > 100 µM | 20.8 µM | 33.5 µM | 35 µM | 24.8 µM | 29.8 µM | 14.7 µM | 40.6 µM | 36.8 µM | 47.6 µM | 30.3 µM |
| Cc1ccc(NC(=O)CC2C(=O)Nc3ccccc3S2=O)c(C)c1 (stereo not given) | 96.7 µM | 38.1 µM | 56.5 µM | 38.3 µM | 30 µM | 44.8 µM | 34.1 µM | 32.8 µM | 67.4 µM | 65.3 µM | – | – | – | – | – | – | – | – | – | – |
| COc1ccc(C2CC(=O)c3c(O)c(OC)c(OC)c(OC)c3O2)cc1O (stereo not given) | > 100 µM | > 100 µM | > 100 µM | > 100 µM | > 100 µM | > 77.5 µM | > 57.1 µM | > 100 µM | > 100 µM | > 100 µM | 1.1 µM | 0.377 µM | > 31.4 µM | 0.103 µM | 0.0358 µM | 0.286 µM | 0.175 µM | 0.547 µM | 0.0418 µM | 0.407 µM |
| O=C(NCCCCCCNC(=O)OCc1ccc2c(Cl)cc(Cl)c(O)c2n1)OCc1ccc2c(Cl)cc(Cl)c(O)c2n1 | 2.25 µM | 4.22 µM | 2.45 µM | 0.693 µM | 2.08 µM | 1.68 µM | 2.62 µM | 3.06 µM | 0.984 µM | 2.78 µM | 0.957 µM | 1.7 µM | 1.18 µM | 0.209 µM | 0.567 µM | 0.311 µM | 0.677 µM | 1.42 µM | 0.303 µM | 1.33 µM |
| Nc1nc(-c2ccc(Cl)cc2)cc(-c2ccccc2)c1-c1nc2ccccc2o1 | 9.29 µM | 7.47 µM | 8.95 µM | 9.17 µM | 24.5 µM | 23 µM | 54.1 µM | 34.6 µM | 31.1 µM | 67.2 µM | 3.05 µM | 2.92 µM | 3.02 µM | 3.21 µM | 10.5 µM | 6.9 µM | 14.1 µM | 6.24 µM | 13.4 µM | 6.38 µM |
| O=C(Cc1ccccc1)NS(=O)(=O)c1ccccc1 | > 100 µM | > 100 µM | > 100 µM | > 100 µM | > 100 µM | > 100 µM | > 100 µM | > 100 µM | > 100 µM | > 100 µM | – | – | – | – | – | – | – | – | – | – |
| Cc1c(CC/C(=N\Nc2ccc([N+](=O)[O-])cc2[N+](=O)[O-])c2ccccc2)c2ccccc2n1C | > 100 µM | > 100 µM | > 100 µM | > 100 µM | > 100 µM | > 100 µM | > 100 µM | > 100 µM | > 100 µM | > 100 µM | – | – | – | – | – | – | – | – | – | – |
